# Data from patent US12168003B2, “Selective inhibition of T follicular helper cells for treatment of autoimmune disorders” (priority 2019, dated 2024).
# Tests used:
# Format in all cases: in vivo, mouse
# EAE mice [1] = assay: Active EAE (MOG33-55/CFA), 4EGI-1 from initiation of EAE
# Procedure: (§1) Ten-week old female mice purchased from Jackson Laboratory were subcutaneously injected at two sites with 100 μL […] emulsified in CFA (Hooke Labs) per flank. On the same day, 6 hours later, and on day 2, mice were injected with 100 ng of pertussis toxin in 200 μL i.p. Mice were monitored daily and scored on a scale of 0-5 where 0, no disease; 1, tail paralysis; 2; hind limb paresis; 3, complete hind limb paralysis; 4, front limb weakness and hind limb paralysis, and 5, moribund state. When stated, mice were either administered 25 mg/kg 4EGI-1 or vehicle i.p. from d 0 to 21 following EAE induction or 75 mg/kg 4EGI-1 or vehicle i.p. from day 12 to 21 following EAE induction and randomization. LFB-H images imported into FIJI underwent color deconvolution to isolate myelin staining. A binary image was generated and % myelination of the spinal cord was calculated. Spinal cords from mice not subjected to EAE were set to 100% and all other samples from the same group were normalized. H&E images imported into FIJI underwent color deconvolution to isolate hematoxylin staining. A binary image was generated and % infiltration of the spinal cord of was calculated. Five-micron sections of paraffin embedded tissue were stained with Akoya Biosciences® Opal™ multiplex automation kit reagents unless stated otherwise. Automated staining was performed on Leica BondRX® autostainer. The protocol was performed according to manufacturers' instructions with primary antibodies to CD19 (Cell Signaling Technology, cat #90176) and CD4 (Cell Signaling Technology, cat #25229). Briefly, all slides underwent sequential epitope retrieval with Leica Biosystems epitope retrieval 2 solution (EDTA based, pH9, Cat. AR9640), primary and secondary antibody incubation and tyramide signal amplification (TSA) with Opal® fluorophores Op690 and Op520. Primary and secondary antibodies were removed during epitope retrieval steps while fluorophores remain covalently attached to the epitope. Semi-automated image acquisition was performed on a Vectra® Polaris multispectral imaging system. After whole slide scanning at 10× the tissue was manually outlined to select fields for multispectral imaging at 20×. Phenochart® software from Akoya Biosciences was used for spectral unmixing of the whole slide scans. Scans were imported into QuPath and representative images were exported into FIJI.
# [2] = system: eIF4E cap-dependent protein synthesis in the CD4+ T cell compartment; assay: SUnSET protein synthesis assay in CD4+ T cells of mice dosed with 4EGI-1; conditions: 25 mg/kg daily
# Procedure: Determination of eIF4E activity in vivo should compare untreated to treated animals. Specimens may include single-cell suspensions of splenocytes isolated using Percoll gradient purification followed by plating in X-VIVO media (Lonza) containing 5% human AB serum (Sigma) and Glutamax at 37° C. for one hour and subjected to SuNSET assay for 10 minutes to determine active protein synthesis rates according to manufacturer instructions (AG Scientific) and shown in FIGS. 10A and 14B.
# Mice were immunized with 100 μg OVA/Alum and 7 days following, spleens were harvested and single-cell suspensions were generated. Splenocytes were incubated in mouse T cell media (detailed in Silencing of eIF4E in OT2 T cells by lentivirus transduction) with 0-25 μM 4EGI-1 for 4 hours at 37° C. Cells were stained with a live/dead viability marker and then for extracellular expression of CD4, CXCR5, PD-1, or ICOS or intranuclear expression of BCL6. For the SuNSET assay, cells from above were incubated 37° C. with 10 μg/mL puromycin for 10 minutes. Control samples were incubated with puromycin and 100 μg/mL cycloheximide. Cells were incubated with a live/dead viability marker and extracellular stain prior to fixation and permeabilization (BD Biosciences Fixation/Permeabilization Solution) and intracellular staining with anti-puromycin followed by anti-mouse IgG2a antibody conjugated to Alexa Fluor 488.
# OT2 T cells = assay: OT2 T cell pre-treatment with 4EGI-1 before adoptive transfer; conditions: 20 μM 4EGI-1 1 hour before transfer
# Procedure: For functional TFH studies: OT2 T cells were isolated and activated, as described, and treated with vehicle or 20 μM 4EGI-1 for 1 hour at 37° C. in vitro prior to transfer of 2×10^6 OT2 T cells i.p. per CD45.1 recipient. Recipient animals were immunized with 100 μg OVA alum 4 days prior. Three days following transfer and 7 days following initial immunization, OT2 T cells that had formed TFH cells were determined.
# For long-term studies: OT2 T cells were isolated and activated, as described, and treated with vehicle or 20 μM 4EGI-1 for 1 h at 37° C. in vitro prior to transfer of 12×10^6 OT2 T cells i.p. per CD45.1 recipient. OT2 T cells were enumerated 34 days post transfer and intracellular levels of eIF4E were determined.
# EAE mice [3] = assay: Active EAE (MOG33-55/CFA), 4EGI-1 after onset of clinical symptoms
# Procedure: as §1
compound,measurement,setting,value
O=C(O)C(Cc1ccccc1[N+](=O)[O-])=NNc1nc(-c2ccc(Cl)c(Cl)c2)cs1 (mixture of isomers) [4EGI-1],clinical EAE severity (daily clinical score),"EAE mice [1]; 25 mg/kg daily i.p., day 0 to 21",significantly reduced
same,disease-associated weight loss,"EAE mice [1]; 25 mg/kg daily i.p., from EAE induction",significantly reduced
same,ELFs (ectopic lymphoid follicles) in spinal cord,"EAE mice [1]; 25 mg/kg daily, EAE mice",substantially reduced
same,numbers of CD4+ T and B cells in the spinal cords,"EAE mice [1]; 25 mg/kg daily, EAE mice, immunofluorescence",strongly reduced
same,level of myelination of the spinal cord (normal = 100%),"EAE mice [1]; 25 mg/kg daily, Luxol fast blue",~98%
same,CD4+ T cells producing IFN-γ in spinal cord and brain,"EAE mice [1]; 25 mg/kg daily, day 21 of EAE",almost abolished
same,CD4+ T cells producing IL-17A in spinal cord and brain,"EAE mice [1]; 25 mg/kg daily, day 21 of EAE",almost abolished
same,reduction of CD4+ T cells in the brain,"EAE mice [1]; 25 mg/kg daily, day 21 of EAE",3 fold
same,reduction of CD4+ T cells in the spinal cord,"EAE mice [1]; 25 mg/kg daily, day 21 of EAE",3 fold
same,reduction of TFH cells in the spleen,"EAE mice [1]; 25 mg/kg daily, day 21 of EAE",3 fold
same,tolerability,[2]; mice,well tolerated
same,inhibition of eIF4E cap-dependent protein synthesis in the CD4+ T cell compartment,"[2]; uninfected mice, SUnSET (FIG. 1A)",approximately 30%
same,OT2 T cells populating the spleen vs non-treated OT2 T cells,OT2 T cells; 34 days post-transfer,equal
same,OT2 T cells populating the spleen vs non-treated OT2 T cells,OT2 T cells; assayed 7 days,equal
same,intracellular levels of eIF4E in recovered OT2 T cells,OT2 T cells; day 34 post-transfer,sustained reduction
same,reduction in number of OT2 TFH cells in the spleen,OT2 T cells; following OVA/Alum immunization,two-thirds
same,day by which mice entered remission,EAE mice [3]; 75 mg/kg from day 12,≤ 15 days
same,decrease of CD4+ T cells producing IFN-γ in spinal cord and brain,EAE mice [3]; 75 mg/kg from day 12,4 fold
same,decrease of CD4+ T cells producing IL-17A in spinal cord and brain,EAE mice [3]; 75 mg/kg from day 12,4 fold
same,decreased infiltration and retention of CD4+ T cells in brain,EAE mice [3]; 75 mg/kg from day 12,4 fold
same,time to marked improvement in clinical symptoms after 4EGI-1 administration,EAE mice [3]; 75 mg/kg from day 12,2 to 3 days
same,spinal cord immune cell infiltration,"EAE mice [3]; 75 mg/kg from day 12, H&E",marked reduction
same,weight compared to vehicle-treated animals,"EAE mice [3]; 75 mg/kg from day 12, day 18",increased
same,decreased infiltration and retention of CD4+ T cells in spinal cord,"EAE mice [3]; 75 mg/kg from day 12, day 21",4 fold
same,decreased levels of splenic TFH cells,"EAE mice [3]; 75 mg/kg from day 12, day 21",3 fold
same,demyelination compared to vehicle-treated mice,"EAE mice [3]; 75 mg/kg from day 12, day 21",reduced
same,"myelination regained, relative to normal levels","EAE mice [3]; 75 mg/kg from day 12, day 21, Luxol fast blue",~90%
same,ELFs / CD4+ T cell clusters in spinal cord,"EAE mice [3]; 75 mg/kg from day 12, immunofluorescence",smaller clusters
same,progression of disease,"EAE mice [3]; 75 mg/kg from day 12, vs vehicle-treated mice",inhibited
